Assay results published in patent US20090233307A1, “METHODS FOR DETECTION OF SINGLE STRAND BREAKS IN DNA” (The University of North Carolina at Chapel Hill, priority 2008, published 2009).

How the values were obtained:
Pol β null cells [1] = assay: SSB repair through NAD(P)H depletion, Pol β null cells; type: cell-based, chicken; details: 1 mM MMS for up to 4 hours, Pol β null cells
Experimental: SSB repair capacity was determined by a real-time colorimetric assay that measures intracellular NAD(P)H levels (Tano et al., DNA Repair, 6, 869-875 (2007)). PARP-1 activation during SSB repair leads to NAD^+ consumption, which can be indirectly monitored through NAD(P)H depletion (Nakamura et al., Nucleic Acids Res., 31, e104 (2003)). Briefly, 5×10^3 cells/well were seeded into a 96-well plate. After a 30 minute incubation period, the cells were treated with 1 mM MMS quickly followed by the addition of a dye containing XTT (Sigma) and 1-methoxy PMS (Sigma). For up to 4 hours, the NAD(P)H-dependent conversion of the XTT tetrazolium salt to a yellow colored formazan dye was measured spectrophotometrically. Decreases in intracellular NAD(P)H levels were determined through comparison of values to those of the PBS control. Established methods for detecting SSBs have not been adequately characterized for pH effects on DNA structure and chemistry and also lack a high specificity for SSBs, primarily because of artifactual SSB formation. […] The accumulation of SSBs leads to PARP-1 over-activation and the consumption of NAD+, which is indirectly monitored in living cells through the measurement of intracellular NAD(P)H depletion using tetrazolium salts, such as XTT, during chemical exposure (Tano et al., DNA Repair, 6, 869-875 (2007)). […]

Pol β null cells [2] = assay: Alkaline gel electrophoresis with or without OTX of DNA from exposed Pol β null cells; type: cell-based, chicken; details: 1 mM MMS, 1-4 hours
Experimental: (§1) DT40 and Pol β null cells were seeded into 100 cm dishes and allowed to divide overnight to reach the density of 1×10^6 cells/mL. Cells were exposed to a continuous treatment of 1 mM methyl methanesulfonate (MMS; Aldrich) for up to 4 hours. Control cells received 1× phosphate buffered saline (PBS) for 0.5 hour. After incubation, cells were harvested, washed with chilled 1× PBS, pelleted, and stored at −80° C. until DNA isolation. Using this protocol, DT40 cells were also incubated in the absence of chemical to obtain a stock of untreated DNA.
DNA was extracted using a PureGene® DNA extraction kit (Gentra Systems. Inc.) with modifications as described previously (Nakamura et al., J. Biol. Chem., 275, 5323-5328 (2000)).
An alkaline gel electrophoresis protocol (AGE) (Drouin et al., in: Technologies for Detection of DNA Damage and Mutations (G. P. Pfeifer, ed.). Plenum Press, New York, N.Y., pp. 37-43 (1996)) with modifications was used to assess SSBs and ALSs in DNA from exposed cells. The 0.7% agarose gel was prepared in gel buffer (50 mM NaCl, 1 mM EDTA, pH 7) and deionized water. After forming, the gel was soaked in mild alkaline running buffer (30 mM NaOH, 1 mM EDTA, pH 12.4) for at least 30 minutes. Equal amounts of DNA (3-5 μg) were incubated for 1 hour at 37° C. in the presence or absence of 30 mM OTX (Aldrich) in 50 mM HEPES buffer. […]

DT40 cells = type: cell-based; details: chicken, 1 mM
Experimental: as §1

isolated, genomic DNA = assay: SSB formation at N7-methylguanine adducts, isolated DNA, NaOH or piperidine denaturation, AGE; details: DNA + 1 mM MMS + 30 mM OTX 1 hour
Experimental: To visualize the conversion of MMS induced N7-methylguanine (N7-meG) adducts into SSBs, the AGE assay described above was modified with a piperidine treatment (Mattes et. al., Biochem. Biophys. Acta 868:71-76 (1986)). Equal amounts of DNA (25 μg) were incubated for 1 hour at 37° C. in the presence of 30 mM OTX (Aldrich) and 1 mM MMS or PBS in 50 mM HEPES buffer (pH 7). Treated DNA was washed and collected using microcon YM-3 centrifugal filter devices (Amicon Bioseparations). The treated DNA was then incubated with alkaline buffer (pH≧12.8) that contained either 100 mM NaOH or 1 M piperidine for 20 minutes at 37° C. This DNA was then washed and collected by centrifugal filter devices, and the concentrations determined by UV. DNA (3-5 μg) from each sample received loading dye and was loaded onto a 0.7% agarose gel prepared as previously described. Electrophoresis, neutralization, staining, and image analysis were performed as described above.
ALSs such as N7-methylguanine (N7-meG), the predominate lesion formed by monofunctional alkylating agents, are generated during MMS exposure (Wyatt et. al., Chem. Res. Toxicol. 19: 1580-1594 (2006)). In the absence of OTX, ALSs other than AP sites may contribute to SSBs detected during AGE. […]

With `COS(C)(=O)=O` [MMS, methyl methanesulfonate] the “intracellular NAD(P)H levels” value (Pol β null cells [1]) was “time-dependent decrease but with more extensive depletion occurring as early as 30 minutes”, the “SSB accumulation (DNA migration) by OTX-AGE” value (Pol β null cells [2]) was “clear time-dependent increase in DNA migration” and the “AP sites (ASB assay) compared to control” value (DT40 cells) was “time-dependent, significant (p<0.01 for all time points, student t-test) increase in AP sites”. The “amount of SSBs after NaOH induced DNA denaturation, MMS treated vs control DNA” value (isolated, genomic DNA; 100 mM NaOH 20 minutes) was “no difference in the amount of SSBs” and the “DNA migration after piperidine treatment” value (isolated, genomic DNA; 1 M piperidine 20 minutes, vs PBS control) was “notable increase in DNA migration”.
